“And” between values parts separate entries of the source, which are not always exact repeats. Identical values can stand only once.
Experiment: phase 1/2 study in relapsed/refractory ITP (NCT03395210), safety
Details: for Time From Initial Treatment to Rescue Use: single patient
Description: The Safety Population was used for all safety analyses.
Pre-existing conditions that worsened during a study were reported as AEs.
Safety was graded per NCI CTCAE, version 4.0.

[1] = treatment-related TEAE, any grade
[2] = treatment-related TEAE, grade 1
[3] = treatment-related TEAE, grade 2
[4] = treatment-related TEAE, grade 3/4

SMILES: CC(C)(C=C(C#N)C(=O)N1CCC[C@@H](n2nc(-c3ccc(Oc4ccccc4)cc3F)c3c(N)ncnc32)C1)N1CCN(C2COC2)CC1 (mixture of isomers) [rilzabrutinib, (R)-2-[3-[4-amino-3-(2-fluoro-4-phenoxy-phenyl)pyrazolo[3,4-d]pyrimidin-1-yl]piperidine-1-carbonyl]-4-methyl-4-[4-(oxetan-3-yl)piperazin-1-yl]pent-2-enenitrile]
- Rescue medication received but discontinued due to unrelated adverse events (in vivo): Two
- TEAE leading to discontinuation: grade 3 GI hemorrhage (in vivo): 1 patient
- TEAE leading to discontinuation: grade 4 Evans syndrome (in vivo): 1 patient
- TEAE leading to discontinuation: grade 4 thrombocytopenia (in vivo): 1 patient
- TEAE resulting in study drug discontinuation (in vivo): Seven
- TEAE resulting in study drug discontinuation: administrative and site conditions (in vivo): 1 (2%) patients (%)
- TEAE resulting in study drug discontinuation: gastrointestinal (GI) disorders (in vivo): 4 (70%) patients (%)
- TEAE resulting in study drug discontinuation: lymphatic system disorders (in vivo): 2 (40%) patients (%)
- TEAEs leading to study drug discontinuation reported as serious adverse events (in vivo): Four
- Use of rescue medication as cause of study discontinuation (in vivo): four
- serious adverse events leading to discontinuation related to treatment (in vivo): none were related to rilzabrutinib treatment
- toxicity across all doses (in vivo): only low-grade toxicity across all doses
- treatment-related discontinuation: grade 1 fatigue (in vivo): 1 patient
- treatment-related discontinuation: grade 2 GI disorders (in vivo): 2 patients
- infections, thrombotic events, cardiac arrhythmias, liver toxicity, or increased bleeding (limited follow up time): no evidence of infections, thrombotic events, cardiac arrhythmias, liver toxicity, or increased bleeding
- adverse events typically associated with BTK inhibitors (neutropenia, treatment-related infections, bleeding, thrombotic events, fungal infections, atrial fibrillation): no signs or symptoms of adverse events typically associated with BTK inhibitors
- related treatment-emergent serious adverse events (open-label Phase 1/2 study in ITP): no related treatment-emergent serious adverse events
- Time From Initial Treatment to Rescue Use (200 mg qd, baseline 24 × 10^9/L): Day 36
- Time From Initial Treatment to Rescue Use (300 mg bid, baseline 3 × 10^9/L): Day 29
- Time From Initial Treatment to Rescue Use (400 mg bid, baseline 18 × 10^9/L): Day 11
- Abdominal discomfort [1]: 1 (2) number of patients (percent)
- Abdominal distension [1]: 4 (7) number of patients (percent)
- Abdominal pain [1]: 2 (3) number of patients (percent)
- Abnormal dreams [1]: 1 (2) number of patients (percent)
- Akathisia [1]: 1 (2) number of patients (percent)
- Alopecia [1]: — (represents zero events)
- Anemia [1]: — (represents zero events)
- Any TEAE [1]: 31 (52) number of patients (percent)
- Arthralgia [1]: — (represents zero events)
- Arthropod bite [1]: — (represents zero events)
- Back pain [1]: 1 (2) number of patients (percent)
- Conjunctival hemorrhage [1]: — (represents zero events)
- Contusion [1]: 1 (2) number of patients (percent)
- Costochondritis [1]: — (represents zero events)
- Cough [1]: — (represents zero events)
- Decreased appetite [1]: 1 (2) number of patients (percent)
- Defecation urgency [1]: 1 (2) number of patients (percent)
- Diarrhea [1]: 19 (32) number of patients (percent)
- Dizziness [1]: — (represents zero events)
- Dyspepsia [1]: 1 (2) number of patients (percent)
- Dyspnea [1]: — (represents zero events)
- Dyspnea exertional [1]: — (represents zero events)
- Edema [1]: 1 (2) number of patients (percent)
- Epigastric discomfort [1]: 1 (2) number of patients (percent)
- Epistaxis [1]: — (represents zero events)
- Erysipelas [1]: 1 (2) number of patients (percent)
- Fatigue [1]: 6 (10) number of patients (percent)
- Frequent bowel movements [1]: 1 (2) number of patients (percent)
- Headache [1]: 2 (3) number of patients (percent)
- Heavy menstrual bleeding [1]: — (represents zero events)
- Hypoesthesia [1]: 1 (2) number of patients (percent)
- Hypophosphatemia [1]: — (represents zero events)
- I lot flush [1]: 1 (2) number of patients (percent)
- Ilypokalemia [1]: 1 (2) number of patients (percent)
- Increased white blood cell count [1]: 1 (2) number of patients (percent)
- Maculo-papular rash [1]: 1 (2) number of patients (percent)
- Malaise [1]: 1 (2) number of patients (percent)
- Micturition urgency [1]: 1 (2) number of patients (percent)
- Muscle spasms [1]: 1 (2) number of patients (percent)
- Myalgia [1]: 1 (2) number of patients (percent)
- Nasal congestion [1]: — (represents zero events)
- Nasopharyngitis [1]: — (represents zero events)
- Nausea [1]: 18 (30) number of patients (percent)
- Peripheral swelling [1]: — (represents zero events)
- Petechiae [1]: — (represents zero events)
- Pruritus [1]: 2 (3) number of patients (percent)
- Purpura [1]: — (represents zero events)
- Rash [1]: 1 (2) number of patients (percent)
- Thrombocytopena [1]: — (represents zero events)
- Upper abdominal pain [1]: 2 (3) number of patients (percent)
- Upper respiratory tract infection [1]: — (represents zero events)
- Urinary tract infection [1]: — (represents zero events)
- Vomiting [1]: 3 (5) number of patients (percent)
- diarrhea [1]: 32%
- fatigue [1]: 10%
- nausea [1]: 30%
- Abdominal discomfort [2]: 1 (2) number of patients (percent)
- Abdominal distension [2]: 4 (7) number of patients (percent)
- Abdominal pain [2]: — (represents zero events)
- Abnormal dreams [2]: 1 (2) number of patients (percent)
- Akathisia [2]: 1 (2) number of patients (percent)
- Alopecia [2]: — (represents zero events)
- Anemia [2]: — (represents zero events)
- Any TEAE [2]: 27 (45) number of patients (percent)
- Arthralgia [2]: — (represents zero events)
- Arthropod bite [2]: — (represents zero events)
- Back pain [2]: — (represents zero events)
- Conjunctival hemorrhage [2]: — (represents zero events)
- Contusion [2]: 1 (2) number of patients (percent)
- Costochondritis [2]: — (represents zero events)
- Cough [2]: — (represents zero events)
- Decreased appetite [2]: 1 (2) number of patients (percent)
- Defecation urgency [2]: — (represents zero events)
- Diarrhea [2]: 16 (27) number of patients (percent)
- Dizziness [2]: — (represents zero events)
- Dyspepsia [2]: 1 (2) number of patients (percent)
- Dyspnea [2]: — (represents zero events)
- Dyspnea exertional [2]: — (represents zero events)
- Edema [2]: 1 (2) number of patients (percent)
- Epigastric discomfort [2]: — (represents zero events)
- Epistaxis [2]: — (represents zero events)
- Erysipelas [2]: — (represents zero events)
- Fatigue [2]: 5 (8) number of patients (percent)
- Frequent bowel movements [2]: — (represents zero events)
- Headache [2]: 2 (3) number of patients (percent)
- Heavy menstrual bleeding [2]: — (represents zero events)
- Hypoesthesia [2]: — (represents zero events)
- Hypophosphatemia [2]: — (represents zero events)
- I lot flush [2]: — (represents zero events)
- Ilypokalemia [2]: 1 (2) number of patients (percent)
- Increased white blood cell count [2]: — (represents zero events)
- Maculo-papular rash [2]: 1 (2) number of patients (percent)
- Malaise [2]: 1 (2) number of patients (percent)
- Micturition urgency [2]: 1 (2) number of patients (percent)
- Muscle spasms [2]: 1 (2) number of patients (percent)
- Myalgia [2]: 1 (2) number of patients (percent)
- Nasal congestion [2]: — (represents zero events)
- Nasopharyngitis [2]: — (represents zero events)
- Nausea [2]: 16 (27) number of patients (percent)
- Peripheral swelling [2]: — (represents zero events)
- Petechiae [2]: — (represents zero events)
- Pruritus [2]: 1 (2) number of patients (percent)
- Purpura [2]: — (represents zero events)
- Rash [2]: 1 (2) number of patients (percent)
- Thrombocytopena [2]: — (represents zero events)
- Upper abdominal pain [2]: 1 (2) number of patients (percent)
- Upper respiratory tract infection [2]: — (represents zero events)
- Urinary tract infection [2]: — (represents zero events)
- Vomiting [2]: 2 (3) number of patients (percent)
- Abdominal discomfort [3]: — (represents zero events)
- Abdominal distension [3]: — (represents zero events)
- Abdominal pain [3]: 2 (3) number of patients (percent)
- Abnormal dreams [3]: — (represents zero events)
- Akathisia [3]: — (represents zero events)
- Alopecia [3]: — (represents zero events)
- Anemia [3]: — (represents zero events)
- Any TEAE [3]: 15 (25) number of patients (percent)
- Arthralgia [3]: — (represents zero events)
- Arthropod bite [3]: — (represents zero events)
- Back pain [3]: 1 (2) number of patients (percent)
- Conjunctival hemorrhage [3]: — (represents zero events)
- Contusion [3]: — (represents zero events)
- Costochondritis [3]: — (represents zero events)
- Cough [3]: — (represents zero events)
- Decreased appetite [3]: — (represents zero events)
- Defecation urgency [3]: 1 (2) number of patients (percent)
- Diarrhea [3]: 3 (5) number of patients (percent)
- Dizziness [3]: — (represents zero events)
- Dyspepsia [3]: — (represents zero events)
- Dyspnea [3]: — (represents zero events)
- Dyspnea exertional [3]: — (represents zero events)
- Edema [3]: — (represents zero events)
- Epigastric discomfort [3]: 1 (2) number of patients (percent)
- Epistaxis [3]: — (represents zero events)
- Erysipelas [3]: 1 number of patients (percent) and 1 (2) number of patients (percent)
- Fatigue [3]: 1 (2) number of patients (percent)
- Frequent bowel movements [3]: 1 (2) number of patients (percent)
- Headache [3]: — (represents zero events)
- Heavy menstrual bleeding [3]: — (represents zero events)
- Hypoesthesia [3]: 1 (2) number of patients (percent)
- Hypophosphatemia [3]: — (represents zero events)
- I lot flush [3]: 1 (2) number of patients (percent)
- Ilypokalemia [3]: — (represents zero events)
- Increased white blood cell count [3]: 1 (2) number of patients (percent)
- Maculo-papular rash [3]: — (represents zero events)
- Malaise [3]: — (represents zero events)
- Micturition urgency [3]: — (represents zero events)
- Muscle spasms [3]: — (represents zero events)
- Myalgia [3]: — (represents zero events)
- Nasal congestion [3]: — (represents zero events)
- Nasopharyngitis [3]: — (represents zero events)
- Nausea [3]: 2 (3) number of patients (percent)
- Peripheral swelling [3]: — (represents zero events)
- Petechiae [3]: — (represents zero events)
- Pruritus [3]: 1 (2) number of patients (percent)
- Purpura [3]: — (represents zero events)
- Rash [3]: — (represents zero events)
- Thrombocytopena [3]: — (represents zero events)
- Upper abdominal pain [3]: 1 (2) number of patients (percent)
- Upper respiratory tract infection [3]: — (represents zero events)
- Urinary tract infection [3]: — (represents zero events)
- Vomiting [3]: 1 (2) number of patients (percent)
- Abdominal discomfort [4]: — (represents zero events)
- Abdominal distension [4]: — (represents zero events)
- Abdominal pain [4]: — (represents zero events)
- Abnormal dreams [4]: — (represents zero events)
- Akathisia [4]: — (represents zero events)
- Alopecia [4]: — (represents zero events)
- Anemia [4]: — (represents zero events)
- Arthralgia [4]: — (represents zero events)
- Arthropod bite [4]: — (represents zero events)
- Back pain [4]: — (represents zero events)
- Conjunctival hemorrhage [4]: — (represents zero events)
- Contusion [4]: — (represents zero events)
- Costochondritis [4]: — (represents zero events)
- Cough [4]: — (represents zero events)
- Decreased appetite [4]: — (represents zero events)
- Defecation urgency [4]: — (represents zero events)
- Diarrhea [4]: — (represents zero events)
- Dizziness [4]: — (represents zero events)
- Dyspepsia [4]: — (represents zero events)
- Dyspnea [4]: — (represents zero events)
- Dyspnea exertional [4]: — (represents zero events)
- Edema [4]: — (represents zero events)
- Epigastric discomfort [4]: — (represents zero events)
- Epistaxis [4]: — (represents zero events)
- Erysipelas [4]: — (represents zero events)
- Fatigue [4]: — (represents zero events)
- Frequent bowel movements [4]: — (represents zero events)
- Headache [4]: — (represents zero events)
- Heavy menstrual bleeding [4]: — (represents zero events)
- Hypoesthesia [4]: — (represents zero events)
- Hypophosphatemia [4]: — (represents zero events)
- I lot flush [4]: — (represents zero events)
- Ilypokalemia [4]: — (represents zero events)
- Increased white blood cell count [4]: — (represents zero events)
- Maculo-papular rash [4]: — (represents zero events)
- Malaise [4]: — (represents zero events)
- Micturition urgency [4]: — (represents zero events)
- Muscle spasms [4]: — (represents zero events)
- Myalgia [4]: — (represents zero events)
- Nasal congestion [4]: — (represents zero events)
- Nasopharyngitis [4]: — (represents zero events)
- Nausea [4]: — (represents zero events)
- Peripheral swelling [4]: — (represents zero events)
- Petechiae [4]: — (represents zero events)
- Pruritus [4]: — (represents zero events)
- Purpura [4]: — (represents zero events)
- Rash [4]: — (represents zero events)
- Thrombocytopena [4]: — (represents zero events)
- Upper abdominal pain [4]: — (represents zero events)
- Upper respiratory tract infection [4]: — (represents zero events)
- Urinary tract infection [4]: — (represents zero events)
- Vomiting [4]: — (represents zero events)
- grade 1 candida infection (unrelated to treatment): ‡Other infections and infestations not listed in the table that were unrelated to treatment and that occurred in a single patient each included grade 1 candida infection, fungal skin infection, and osteomyelitis; and grade 2 infected skin ulcer and oral herpes.
- patient deaths (unrelated to treatment, 400 mg bid discontinued day 8, died 135 days after initiating): 1 patient

— patent US20260364079A1 (Principia Biopharma Inc., priority 2022, published 2026)
